From patent US6362207B1, “Methods of treating viral infections with benzimidazoles” (priority 1995, dated 2002)
Values joined by “and” are separate entries in the source; they are usually repeats but may differ in a detail not shown here. Identical values can stand only once.

Columns and labels:
[1] = system: A549 lung tumor cells; assay: MTT cell viability test, lung tumor cells; format: cell-based, human; details: MTT, 5 day incubation
[2] = system: Prostate cancer model; assay: Prostate cancer model, tumor weight; format: in vivo, mice; details: c1-c6 = day 22, 26, 29, 33, 36, 39
[3] = system: P388; assay: P-388 model for leukemia, T/C; format: in vivo, mice
Description: In the P-388 model for leukemia there was a dose responsive effect and the results were good.
The NCI Measure of Success is T/C=125.

COC(=O)Nc1nc2ccccc2[nH]1 [carbendazim, 2-methoxycarbonylamino-benzimidazole]
EC-50 Result ([1]; A549, first column): 0.856 ppm | EC-50 Result ([1]; A549, second column): 0.836 ppm | tumor weight ([2]; 4000 mg/kg p.o. twice a week): 330.5 mg and 347.9 mg and 346.6 mg and 421.1 mg and 464.9 mg and 517 mg | tumor weight ([2]; 6000 mg/kg p.o. twice a week): 331.5 mg and 371.7 mg and 421.7 mg and 517.2 mg and 529.9 mg and 595.2 mg | T/C ([3]; 500 mg/kg twice weekly): 141 | weight change (%) ([3]; 500 mg/kg twice weekly): −0.64% | T/C ([3]; 1000 mg/kg twice weekly): 176 | weight change (%) ([3]; 1000 mg/kg twice weekly): −4.75% | T/C ([3]; 1250 mg/kg twice weekly): 124 | weight change (%) ([3]; 1250 mg/kg twice weekly): +1.99% | T/C ([3]; 2000 mg/kg twice weekly): 169 | weight change (%) ([3]; 2000 mg/kg twice weekly): −11.63% | T/C ([3]; 2500 mg/kg twice weekly): 169 | weight change (%) ([3]; 2500 mg/kg twice weekly): +3.16% | T/C ([3]; 5000 mg/kg twice weekly): 198 | weight change (%) ([3]; 5000 mg/kg twice weekly): −0.64% | Increased Life Span ([3]; P388-luekemia, 1000 mg/kg): 129% | Increased Life Span ([3]; P388-luekemia, 2000 mg/kg): 148% | decreased life span ([3]; P388-luekemia, 4000 mg/kg, printed in column Increased Life Span): 9%
